Experimental data taken from ChEMBL document CHEMBL5108004, “An auristatin-based peptide-drug conjugate targeting Kita-Kyushu lung cancer antigen 1 for precision chemoradiotherapy in gastric cancer” (Eur J Med Chem, 2022).
The source made the active and inactive calls. The rule behind the calls is not given here. Where a SMILES comes first, the peptide text is derived from it. [ ]: non-standard residue; d: D form. The star is where a group is joined. Dolaproine = CO[C@@H]([C@@H]1CCCN1)[C@@H](C)C(=O)O; Dil = CC[C@H](C)[C@H](NC)[C@@H](CC(=O)O)OC; X1 = C[C@@H](N*)[C@@H](O)c1ccccc1; NMeV = CN[C@H](C(=O)O)C(C)C

Key:
NUGC-4 [1] = test: Cytotoxicity against KK-LC-1-positive human NUGC-4 cells incubated for 72 hrs by CCK-8 assay; format: functional, cell-based; conditions: NUGC-4, 72 h
MKN-45 [2] = test: Cytotoxicity against KK-LC-1-positive human MKN-45 cells incubated for 72 hrs by CCK-8 assay; format: functional, cell-based; conditions: MKN-45, 72 h
HGC-27 = test: Cytotoxicity against KK-LC-1-negative human HGC-27 cells incubated for 72 hrs by CCK-8 assay; format: functional, cell-based; conditions: HGC-27, 72 h
NUGC-4 [3] = test: Induction of mitotic arrest in KK-LC-1-positive human NUGC-4 cells xenografted in nude mouse assessed as number of pHH3-positive nuclei in tumor at 4 nmol, iv administered as single dose and measured after 24 hrs by pHH3 immunohistochemical staining method relative to control; format: functional
MKN-45 [4] = test: Antitumor activity against KK-LC-1-positive human MKN-45 cells xenografted in male BALB/c nude mouse assessed as reduction in tumor growth; format: functional
MKN-45 [5] = test: Antitumor activity against KK-LC-1-positive human MKN-45 cells xenografted in male BALB/c nude mouse assessed as tumor volume; format: functional

## CC[C@H](C)[C@@H]([C@@H](CC(=O)N1CCC[C@H]1[C@H](OC)[C@@H](C)C(=O)N[C@H](C)[C@@H](O)c1ccccc1)OC)N(C)C(=O)[C@@H](NC(=O)[C@@H](NC)C(C)C)C(C)C (H-[NMeV]V[Dil][Dolaproine]-X1)
NUGC-4 [1]
  IC50: 11 nM
MKN-45 [2]
  IC50: 10.7 nM
HGC-27
  IC50: 7.18 nM
NUGC-4 [3]
  Activity: 28.75
MKN-45 [4]
  Activity: Active
MKN-45 [5]
  Activity: 602.1 mm3
